This is an account of results in patent US20260176252A1, “IONIZABLE LIPIDS WITH BRANCHED HEAD GROUPS” (Beam Therapeutics Inc., priority 2023, published 2026).

Data set [1] can be described thus: pKa of LNP preparations via TNS assay. As to conditions: Table D; LNP formulation ratio 47.5:40:2.5:10. The data set is classed as physicochemical. The method, then:
(§1) LNP preparations are formed by microfluidic mixing of the lipid and NA solutions using a Precision Nanosystems NanoAssemblr Ignite Instrument, according to the manufacturer's protocol. A 3:1 ratio of aqueous to organic solvent is maintained during mixing using differential flow rates. After mixing, LNP preparations are collected, diluted in PBS (approximately 2:1 v/v), and further buffer exchange is conducted using dialysis in PBS at 4° C. for 8 to 24 hours against a 20 kDa filter. After this initial dialysis, each individual LNP preparation is characterized via dynamic light scattering (DLS) to measure size and polydispersity. pKa of a subpopulation of LNP preparations is measured via TNS assay. After dialysis, LNP preparations are sterile filtered using 0.22 micron sterile filter and stored at 4° C. for further use. In some embodiments, LNP preparations may be concentrated using 100 kDa Amicon filters per manufacturer's protocol.

The nature of data set [2]: Dynamic light scattering (DLS) of LNP preparations: size (diameter) and polydispersity. In kind it is physicochemical. The settings on record: for AVG PDI / AVG Z Dia (nm): Table A, LNP 47.5% Ionizable Lipid:40% cholesterol:2.5% PEG-2000 DMG:10% DPSC, N/P 4.5-6. Here is the method:
A ratio of aqueous to organic solvent of approximately 2:1 or 3:1 was maintained during mixing using differential flow rates. After mixing, LNP preparations were collected, diluted in phosphate buffer saline (PBS) or Tris-buffered saline (TBS) (approximately 1:1 v/v). Further buffer exchange was conducted using dialysis in PBS or TBS at 4° C. for 4 to 24 hours against a 20 kDa filter. After this initial dialysis, each individual LNP preparation may be characterized via dynamic light scattering (DLS) to measure the size (e.g., diameter) and polydispersity. LNP preparations falling within specific diameter and polydispersity ranges were pooled, and further dialyzed against PBS or TBS at 4° C. for 1 to 4 hours against a 100 kDa dialysis cassette. After the second dialysis, LNP preparations were sterile filtered using 0.22 μm filter and stored at 4° C. for further use.
as §1
DLS-LNP preparation hydrodynamic diameter and polydispersity index (PDI) is measured using high throughput dynamic light scattering (DLS) (DynaPro plate reader II, Wyatt). LNP preparations are diluted 1×PBS to an appropriate concentration and analyzed.

Data set [3] can be described thus: Encapsulation efficiency of LNP preparations (unlysed and lysed LNPs). As to conditions: for AVG EE(%): Table A, LNP 47.5% Ionizable Lipid:40% cholesterol:2.5% PEG-2000 DMG:10% DPSC, N/P 4.5-6, NA cargo with barcode. The data set is classed as physicochemical. Here is the method: Concentration of NA is determined by Qubit microRNA kit (for siRNA) or HS RNA kit (for mRNA) per manufacturer's instructions. Encapsulation efficiency is determined by measuring unlysed and lysed LNPs.

In the next data set the test system is ALAS1 target site. The data set is described as follows: In vivo base editing with LNP-delivered ABE mRNA and sgRNA targeting ALAS1. As to conditions: Balb/c mice, IV tail vein, 4 days after dosing; for Quadracept Editing A->G (%): ALAS1, Quadracept (muscle); for Liver Editing A->G (%): ALAS1, liver. The method, then: Exemplary LNP preparations are selected to determine each preparation's ability to perform base editing in a Balb/C mouse model as described herein.
Lipid nanoparticle components are dissolved in 100% ethanol at specified lipid component molar ratios. mRNA encoding an adenine base editor and a chemically-modified sgRNA is dissolved at a mass ratio of 1:1 in 10 mM citrate, 100 mM NaCl, pH 4.0, resulting in a concentration of NA cargo of approximately 0.22 mg/mL. LNP preparations are formulated with molar ratios of either 50% Ionizable Lipid:38.5% Cholesterol:1.5% PEG2000-DMG: 10% DSPC or 47.5% Ionizable Lipid:40% Cholesterol:2.5% PEG2000-DMG: 10% DSPC both at a total lipid to NA molar ratio of 6.
as §1
Male Balb/C mice aged approximately 8-12 weeks are used in the experiments described herein. Each mouse is temporarily restrained, and LNP preparations are administered IV via tail vein injection. Age-matched mice are also used to administer vehicle (1×PBS) via tail vein injection as a control. Four to six days post-dose, tissues including liver, spleen, heart and muscle are collected (only liver and muscle (quardracept) are reported). Genomic DNA is isolated and fragmented and adapter-ligated using the Nextera DNA Flex Library Prep Kit (Illumina) using the 96-well plate Nextera indexing primers (Illumina), according to the manufacturer's instructions. Library size and concentration is confirmed by Fragment Analyzer (Agilent) and sent to Novogene for whole genome sequencing using an Illumina HiSeq.
For base editing, mRNA encoding an adenine base editor (ABE) and a guide RNA (sgRNA) targeting ALAS1 at 1:1 (mass ratio) are coencapsulated in LNP preparations as described herein. LNP preparations are administrated into Balb/c mice through tail vein injections at concentrations ranging from 0.05 to 3.0 mg/kg total RNA. At 4 days after dosing, mice are euthanized and liver, spleen and bone barrow are harvested. Base editing is determined by performing targeted deep sequencing analysis at the ALAS1 target site using extracted genomic DNA.

The mark [4] stands for this setting: Table D, LNP formulation ratio 47.5:40:2.5:10, ABE mRNA + PCSK9 sgRNA 1:1.
Where [5] appears, read: Table C, LNP formulation ratio 47.5:40:2.5:10, ABE mRNA + ALAS1 sgRNA 1:1.

As for `CCCCCCC(CCC(=O)OCC(COC(=O)CCCCCC(=O)OC/C=C(/C)CCC=C(C)C)COC(=O)CCCCCC(=O)OC/C=C(/C)CCC=C(C)C)OC(=O)NCCN1CCCC1` (stereo not shown) [Example 11, 1-(2Z)-3,7-dimethylocta-2,6-dien-1-yl-7-{3-[(7-{[(2Z)-3,7-dimethylocta-2,6-dien-1-yl]oxy}-7-oxoheptanoyl)oxy]-2-({[4-({[2-(pyrrolidin-1-yl)ethyl]carbamoyl}oxy)decanoyl]oxy}methyl)propyl}heptanedioate], the pKa in data set [1] is recorded as 6.85. In data set [2] (setting [4]), the “Diameter (nm)” value is recorded as 152.05 nm. Moreover, in data set [3] (setting [4]), the “EE (%)” value came out at 90.5%.
Regarding `C=CCCCCCC(CCCCCC=C)OC(=O)CCCCCC(=O)OCC(COC(=O)CCCCCC(=O)OC(CCCCCC=C)CCCCCC=C)COC(=O)CCC(CCCCC)OC(=O)NCCN1CCCC1` (stereo not shown) [Example 2, 7,7′-di(pentadeca-1,14-dien-8-yl) O′1,O1-(2-(((4-(((2-(pyrrolidin-1-yl)ethyl)carbamoyl)oxy)nonanoyl)oxy)methyl)propane-1,3-diyl) di(heptanedioate)], in data set [2], the “AVG PDI” value came out at 0.09 and the “AVG Z Dia (nm)” value turned out to be 78.76 nm. In data set [2] (setting [5]), the “Diameter (nm)” value was determined as 64.4 nm and the “PDI (%)” value was determined as 8.2%. The “AVG EE(%)” value in data set [3] is listed as 90.7%. Also, the “EE (%)” value in data set [3] (setting [5]) came out at 95.75%. Besides, in the data set with ALAS1 target site (Dose 1.5 MPK total RNA), the “Quadracept Editing A->G (%)” value is recorded as 1.7% and the “Liver Editing A->G (%)” value is 86.3%.
As to `CC/C=C\CCCC(CCC/C=C\CC)OC(=O)CCCCCC(=O)OCC(COC(=O)CCCCCC(=O)OC(CCC/C=C\CC)CCC/C=C\CC)COC(=O)CCC(CCCCCC)OC(=O)NCCN1CCCC1` (stereo not shown) [Example 6, 7,7′-di((3Z,12Z)-pentadeca-3,12-dien-8-yl) O′1,O1-(2-(((4-(((2-(pyrrolidin-1-yl)ethyl)carbamoyl)oxy)decanoyl)oxy)methyl)propane-1,3-diyl) di(heptanedioate)], in data set [2] (setting [5]), the “Diameter (nm)” value was 71 nm and the “PDI (%)” value is given as 10.8%. The “EE (%)” value in data set [3] (setting [5]) is 95.5%. In the data set on ALAS1 target site (Dose 1.5 MPK total RNA), the “Quadracept Editing A->G (%)” value was determined as 2.5% and the “Liver Editing A->G (%)” value was 88.7%.
As to `C=C(C)C(CC=C(C)C)COC(=O)CCCCCC(=O)OCC(COC(=O)CCCCCC(=O)OCC(CC=C(C)C)C(=C)C)COC(=O)CCC(CCCCCC)OC(=O)NCCN1CCCC1` (stereo not shown) [Example 12, 1-[5-methyl-2-(prop-1-en-2-yl)hex-4-en-1-yl]-7-(2-{[(7-{[5-methyl-2-(prop-1-en-2-yl)hex-4-en-1-yl]oxy}-7-oxoheptanoyl)oxy]methyl}-3-{[4-({[2-(pyrrolidin-1-yl)ethyl]carbamoyl}oxy)decanoyl]oxy}propyl) heptanedioate], the pKa in data set [1] is recorded as 6.68. In data set [2] (setting [4]), the “Diameter (nm)” value was determined as 163 nm. Besides, in data set [3] (setting [4]), the “EE (%)” value was determined as 87.7%.
For “7,7′-bis(2-(pent-4-en-1-yl)hept-6-en-1-yl) O′1,O1-(2-(((4-(((2-(pyrrolidin-1-yl)ethyl)carbamoyl)oxy)decanoyl)oxy)methyl)propane-1,3-diyl) di(heptanedioate) [Example 4]”, in data set [2] (setting [5]), the “Diameter (nm)” value is 124.45 nm and the “PDI (%)” value is recorded as 10.6%. In data set [3] (setting [5]), the “EE (%)” value turned out to be 87.2%. The “Liver Editing A->G (%)” value in the data set with ALAS1 target site (Dose 0.05 MPK total RNA) is 1.59%.
With `CCCCCCC(CCC(=O)OCC(COC(=O)CCCCCC(=O)OC/C=C(\C)CCC=C(C)C)COC(=O)CCCCCC(=O)OC/C=C(\C)CCC=C(C)C)OC(=O)NCCN1CCCC1` (stereo not shown) [Example 7, 1-(2E)-3,7-dimethylocta-2,6-dien-1-yl 7-{3-[(7-{[(2E)-3,7-dimethylocta-2,6-dien-1-yl]oxy}-7-oxoheptanoyl)oxy]-2-({[4-({[2-(pyrrolidin-1-yl)ethyl]carbamoyl}oxy)decanoyl]oxy}methyl)propyl}heptanedioate], the pKa in data set [1] is 7.17. For the same molecule, the “Diameter (nm)” value in data set [2] (setting [4]) came to 134.3 nm. Also, in data set [3] (setting [4]), the “EE (%)” value was 91.7%.
Take “Bis(2-(pent-4-en-1-yl)hept-6-en-1-yl) O,O′-(2-(((4-(((2-(118yrrolidine-1-yl)ethyl)carbamoyl)oxy)decanoyl)oxy)methyl)propane-1,3-diyl) diadipate [Example 3]”: in data set [2] (setting [5]), the “Diameter (nm)” value is listed as 140.85 nm and the “PDI (%)” value is on record as 5.5%. The “EE (%)” value in data set [3] (setting [5]) stood at 82.63%.
As to `C=CCCCCCC(CCCCCC=C)COC(=O)CCCCC(=O)OCC(COC(=O)CCCCC(=O)OCC(CCCCCC=C)CCCCCC=C)COC(=O)CCC(CCCCCC)OC(=O)NCCN1CCCC1` (stereo not shown) [Example 5, bis(2-(hept-6-en-1-yl)non-8-en-1-yl) O,O′-(2-(((4-(((2-(pyrrolidin-1-yl)ethyl)carbamoyl)oxy)decanoyl)oxy)methyl)propane-1,3-diyl) diadipate], in data set [2], the “AVG PDI” value amounted to 0.08 and the “AVG Z Dia (nm)” value is given as 79.74 nm. Moreover, in data set [2] (setting [5]), the “Diameter (nm)” value is listed as 64.5 nm and the “PDI (%)” value turned out to be 8.2%. In addition, the “AVG EE(%)” value in data set [3] came to 93.9%. Besides, in data set [3] (setting [5]), the “EE (%)” value amounted to 95.84%. For the same molecule, in the data set with ALAS1 target site (Dose 1.5 MPK total RNA), the “Quadracept Editing A->G (%)” value is recorded as 1.5% and the “Liver Editing A->G (%)” value came to 79.8%.
Regarding `C=CC(C)(CCC=C(C)C)OC(=O)CCCCCC(=O)OCC(COC(=O)CCCCCC(=O)OC(C)(C=C)CCC=C(C)C)COC(=O)CCC(CCCCCC)OC(=O)NCCN1CCCC1` (stereo not shown) [Example 10, 1-(3,7-dimethylocta-1,6-dien-3-yl)-7-[3-({7-[(3,7-dimethylocta-1,6-dien-3-yl)oxy]-7-oxoheptanoyl}oxy)-2-({[4-({[2-(pyrrolidin-1-yl)ethyl]carbamoyl}oxy)decanoyl]oxy}methyl)propyl]heptanedioate], in data set [1], the pKa was 6.814. Moreover, the “Diameter (nm)” value in data set [2] (setting [4]) turned out to be 135.28 nm. Besides, in data set [3] (setting [4]), the “EE (%)” value worked out at 99.1%.
The like results for `CCCCCCC(CCC(=O)OCC(COC(=O)CCCCCC(=O)OCCC(C)CCC=C(C)C)COC(=O)CCCCCC(=O)OCCC(C)CCC=C(C)C)OC(=O)NCCN1CCCC1` (stereo not shown) [Example 9, 1-(3,7-dimethyloct-6-en-1-yl) 7-[3-({7-[(3,7-dimethyloct-6-en-1-yl)oxy]-7-oxoheptanoyl}oxy)-2-({[4-({[2-(pyrrolidine-1-yl)ethyl]carbamoyl}oxy)decanoyl]oxy}methyl)propyl]heptanedioate] were, in that order, 6.85, 148.65 nm and 85.3%.
The like results for `CCCCCCC(CCC(=O)OCC(COC(=O)CCCCCC(=O)OCCC(C)CCCC(C)C)COC(=O)CCCCCC(=O)OCCC(C)CCCC(C)C)OC(=O)NCCN1CCCC1` (stereo not shown) [Example 8, 1-(3,7-Dimethyloctyl)-7-[3-({7-[(3,7-dimethyloctyl)oxy]-7-oxoheptanoyl}oxy)-2-({[4-({[2-(pyrrolidin-1-yl)ethyl]carbamoyl}oxy)decanoyl]oxy}methyl)propyl]heptanedioate] were, in that order, 6.74, 110.35 nm and 94.3%.
